This is an account of results in the supplement of paper PMC10307832.

Holding throughout (test): relative viability (nuclei count vs DMSO), 5 days (fraction); higher = more cells survive
Compound in test [1]: CCC1=CN=CN=C1N2CCN(CC2)CC3=NC4=C(N3)C=C(C=C4)C(F)(F)F + C[C@@H](Oc1cc(-c2cnn(C3CCNCC3)c2)cnc1N)c1c(Cl)ccc(F)c1Cl [Crizotinib] (partner 1 µM)
The method in brief:
(§1)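 Relative viability is defined as nuclei in treated wells over nuclei in vehicle wells. Duplicate plates were run and medians reported. Lung cancer cell lines in 1536-well plates were dosed by pin tool one day after seeding, with one drug or with a fixed anchor-drug dose plus five library-drug doses (not always all listed) in √10 steps, and nuclei were counted after 5 days.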

Compound in test [2]: CCn1c(-c2nonc2N)nc2cnc(Oc3cccc(NC(=O)c4ccc(OCCN5CCOCC5)cc4)c3)cc21 + CS(=O)(=O)CCNCc1ccc(-c2ccc3ncnc(Nc4ccc(OCc5cccc(F)c5)c(Cl)c4)c3c2)o1 [Lapatinib] (partner 2 µM)
Put shortly:
as §1

Compound in test [3]: CCn1c(-c2nonc2N)nc2cnc(Oc3cccc(NC(=O)c4ccc(OCCN5CCOCC5)cc4)c3)cc21 + Cc1nc(NC(=O)N2CCC[C@H]2C(N)=O)sc1-c1ccnc(C(C)(C)C(F)(F)F)c1 [Alpelisib] (partner 2 µM)
Put shortly: as §1

Compound in test [4]: CCC1=CN=CN=C1N2CCN(CC2)CC3=NC4=C(N3)C=C(C=C4)C(F)(F)F + CC1(C)CCC(c2ccc(Cl)cc2)=C(CN2CCN(c3ccc(C(=O)NS(=O)(=O)c4ccc(N[C@H](CCN5CCOCC5)CSc5ccccc5)c(S(=O)(=O)C(F)(F)F)c4)cc3)CC2)C1 [Navitoclax] (partner 0.5 µM)
The method in brief: as §1

In the case of UMC-11, the relative viability in test [1] (first compound 0.04 µM) was 0.572; in test [1] (first compound 0.1265 µM), 0.611; in test [1] (first compound 0.4 µM), 0.621; in test [1] (first compound 1.265 µM), 0.615; in test [1] (first compound 4 µM), 0.906; in test [2] (first compound 0.04 µM), 0.959. The relative viability in test [2] (first compound 0.1265 µM) was 0.833; in test [2] (first compound 0.4 µM), 0.509; in test [2] (first compound 1.265 µM), 0.223; in test [2] (first compound 4 µM), 0.258; in test [3] (first compound 0.04 µM), 1.17; in test [3] (first compound 0.1265 µM), 0.991. In addition, the relative viability in test [3] (first compound 0.4 µM) worked out at 0.78; in test [3] (first compound 1.265 µM), 0.251; in test [3] (first compound 4 µM), 0.233; in test [4] (first compound 0.04 µM), 0.319; in test [4] (first compound 0.1265 µM) it was 0.304; in test [4] (first compound 0.4 µM), 0.312. Also, the relative viability in test [4] (first compound 1.265 µM) was found to be 0.284; in test [4] (first compound 4 µM) it was 0.305.
